According to PubChem BioAssay (NCI):
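Interpolation was linear, between the two tested concentrations surrounding the appropriate level; five concentrations were tested over 48 hours in 96-well plates. Abbreviation: GI50, concentration required for 50% inhibition of growth. TGI marks complete inhibition of growth.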

Legend:
Experiment in all cases: inhibition of tumour cell growth, NCI panel, 48 h
786-0 renal = tested on: 786-0 renal
HCT-116 colon = tested on: HCT-116 colon
HCT-15 colon = tested on: HCT-15 colon
MDA-MB-435 = tested on: MDA-MB-435
MOLT-4 leukemia = tested on: MOLT-4 leukemia
OVCAR-8 ovarian = tested on: OVCAR-8 ovarian
SF-268 CNS = tested on: SF-268 CNS
SK-MEL-2 melanoma = tested on: SK-MEL-2 melanoma
SK-OV-3 ovarian = tested on: SK-OV-3 ovarian
SNB-75 CNS = tested on: SNB-75 CNS

| SMILES | TGI (786-0 renal) | TGI (HCT-116 colon) | TGI (HCT-15 colon) | TGI (MDA-MB-435) | TGI (MOLT-4 leukemia) | TGI (OVCAR-8 ovarian) | TGI (SF-268 CNS) | TGI (SK-MEL-2 melanoma) | TGI (SK-OV-3 ovarian) | TGI (SNB-75 CNS) | GI50 (786-0 renal) | GI50 (HCT-116 colon) | GI50 (HCT-15 colon) | GI50 (MDA-MB-435) | GI50 (MOLT-4 leukemia) | GI50 (OVCAR-8 ovarian) | GI50 (SF-268 CNS) | GI50 (SK-MEL-2 melanoma) | GI50 (SK-OV-3 ovarian) | GI50 (SNB-75 CNS) |
| --- | --- | --- | --- | --- | --- | --- | --- | --- | --- | --- | --- | --- | --- | --- | --- | --- | --- | --- | --- | --- |
| Cn1c(=O)c2[nH]c(CS(=O)(=O)Cc3nc4c([nH]3)c(=O)n(C)c(=O)n4C)nc2n(C)c1=O | > 100 µM | > 100 µM | > 100 µM | > 100 µM | > 100 µM | > 100 µM | > 100 µM | > 100 µM | > 100 µM | > 100 µM | – | – | – | – | – | – | – | – | – | – |
| CC1(C)N=C(N)N=C(N)N1c1cc(Cl)ccc1Cl | > 100 µM | > 100 µM | > 100 µM | > 100 µM | > 100 µM | > 100 µM | > 100 µM | > 100 µM | > 100 µM | > 100 µM | > 100 µM | 93.8 µM | > 100 µM | > 100 µM | > 100 µM | > 100 µM | > 100 µM | > 100 µM | > 100 µM | > 100 µM |
| S=C(Nc1ccc(Cl)cc1)Nc1ccc(-c2nc3ccccc3[nH]2)cc1 | 22.8 µM | 24.7 µM | 12.9 µM | 26.6 µM | – | > 59.7 µM | > 68.7 µM | – | > 100 µM | > 55 µM | 10.2 µM | 12.3 µM | 3.82 µM | 9.11 µM | – | 14.3 µM | 12.2 µM | – | 17.7 µM | 15.7 µM |
| O=c1cc(-c2ccccc2)nc2n1CCN2Cc1ccccc1 | > 100 µM | > 100 µM | > 100 µM | > 100 µM | 79.5 µM | > 100 µM | > 100 µM | 50.5 µM | > 100 µM | > 100 µM | 39.7 µM | 31.6 µM | 31.2 µM | 31.1 µM | 20.2 µM | 47.2 µM | 46.9 µM | 20.5 µM | 51.3 µM | 60.5 µM |
| CC(=O)N1c2ccccc2Sc2cc(C(O)(C(F)(F)F)C(F)(F)F)ccc21 | > 10 µM | > 10 µM | > 10 µM | > 10 µM | > 10 µM | > 10 µM | > 10 µM | > 10 µM | > 10 µM | > 10 µM | – | – | – | – | – | – | – | – | – | – |
| O=C(NOCC1CC1)c1ccc(F)c(F)c1Nc1ccc(I)cc1Cl | > 35.1 µM | 9.06 µM | > 32.7 µM | > 55.5 µM | 25.6 µM | 20.6 µM | > 100 µM | 2.05 µM | > 100 µM | > 45.2 µM | 2.7 µM | 0.641 µM | 1.57 µM | 0.298 µM | 3.35 µM | 2.32 µM | 2.82 µM | 0.166 µM | 4.35 µM | 2.15 µM |
| O=C1CCC2(C=C(Br)C(=O)C(Br)=C2)O1 | 30.8 µM | 3.12 µM | 8.76 µM | 11.3 µM | > 23 µM | 11.5 µM | 28.6 µM | 30.3 µM | 31.3 µM | 26 µM | 17 µM | 1.69 µM | 2.77 µM | 4.84 µM | 3.46 µM | 3.45 µM | 15.1 µM | 15 µM | 17.4 µM | 13.2 µM |
| COc1ccc2[nH]c(Cl)c(/C=C3/C(=O)N(C)c4ccccc43)c2c1 | > 100 µM | > 100 µM | > 100 µM | > 100 µM | > 100 µM | > 100 µM | > 100 µM | > 100 µM | > 100 µM | – | > 100 µM | 42.5 µM | > 100 µM | > 100 µM | 79.1 µM | > 100 µM | > 100 µM | > 100 µM | 77.4 µM | – |
| O=[N+]([O-])/C=C/c1c[nH]c2ccccc12 | 27.2 µM | 11.3 µM | 45.7 µM | 5.06 µM | 35.5 µM | 49.4 µM | 40.5 µM | 37.8 µM | 29.1 µM | 16.3 µM | 13.5 µM | 3.32 µM | 18.2 µM | 2.15 µM | 13.9 µM | 21.6 µM | 16 µM | 18.6 µM | 15.2 µM | 4.45 µM |
| COc1nc(C)cc2c(=O)n(-c3ccccc3)n(CCCN3CCN(c4ccc(Cl)cc4)CC3)c(=O)c12 | > 50 µM | > 50 µM | > 50 µM | > 50 µM | > 50 µM | – | > 50 µM | > 50 µM | > 50 µM | 47.6 µM | 31.2 µM | 27.5 µM | > 50 µM | > 50 µM | > 50 µM | – | 37.7 µM | > 50 µM | 32.8 µM | 14.1 µM |
| O=C(C(Br)Br)C(Br)C(Br)c1ccccc1 (configuration not stated) | 11 µM | 3.42 µM | 4.38 µM | 8.21 µM | 4.76 µM | > 100 µM | 16.9 µM | 35.7 µM | 31.1 µM | 53.4 µM | 3.47 µM | 1.83 µM | 1.96 µM | 2.67 µM | 1.82 µM | 3.16 µM | 4.04 µM | 13.7 µM | 17.2 µM | 19.9 µM |
| CCN(CC)CCCCCCCNc1c2ccc(Cl)cc2nc2ccc(OC)cc12 | 2.35 µM | 0.801 µM | 6.59 µM | 3.16 µM | 2.32 µM | 2.9 µM | 2.5 µM | 3.77 µM | 3.58 µM | 2.62 µM | 0.902 µM | 0.285 µM | 0.997 µM | 1.43 µM | 0.372 µM | 0.628 µM | 1.03 µM | 1.56 µM | 1.41 µM | 1.29 µM |
| O=C(Nc1ccc(Cl)cc1)c1cc2ccccc2cc1O | > 100 µM | 16.5 µM | > 100 µM | > 100 µM | > 100 µM | > 100 µM | > 100 µM | 13.1 µM | 9.61 µM | > 100 µM | 3.81 µM | 2.19 µM | 3.1 µM | 3.84 µM | 4.19 µM | 3.67 µM | 3.68 µM | 2.87 µM | 1.91 µM | 22.2 µM |
| CN(C)CCCNC(=O)c1cc(NC(=O)c2cc(NC(=O)c3cc(NC(=O)CCc4c[nH]c5ccccc45)cn3C)cn2C)cn1C | > 100 µM | > 100 µM | > 100 µM | > 100 µM | > 100 µM | > 100 µM | > 100 µM | > 100 µM | > 100 µM | > 100 µM | > 100 µM | > 100 µM | > 100 µM | > 100 µM | > 100 µM | > 100 µM | > 100 µM | > 100 µM | > 100 µM | > 100 µM |
| C[C@]12CCC(=O)C(O)=C1CC[C@@H]1[C@@H]2CC[C@]2(C)C(=O)CC[C@@H]12 | > 100 µM | > 100 µM | > 100 µM | > 100 µM | > 100 µM | > 100 µM | > 100 µM | > 100 µM | > 100 µM | > 100 µM | – | – | – | – | – | – | – | – | – | – |
| CC1(C)OCC(CO)(Nc2nc(N3CC3)nc(N3CC3)n2)CO1 | 18.7 µM | 27.5 µM | 45.8 µM | 46.4 µM | 19 µM | 33.1 µM | 27.6 µM | 40 µM | 34.2 µM | 33.1 µM | – | – | – | – | – | – | – | – | – | – |
| Cc1nc2cccc(NCc3ccc(C(=O)NO)cc3)c2c(=O)n1-c1ccccc1 | 3.78 µM | 4.76 µM | 3.41 µM | 3.28 µM | > 100 µM | 3.75 µM | – | 5.12 µM | 8.28 µM | 5.46 µM | 1.81 µM | 1.35 µM | 1.68 µM | 1.63 µM | 2.28 µM | 1.52 µM | – | 2.36 µM | 2.71 µM | 1.97 µM |
| CC1=Cc2cc3[n-]c(cc4nc(cc5[n-]c(cc1n2)cc5C)C(C)=C4CCC(=O)O)c(CCC(=O)O)c3C.[Pd+2] | > 49.6 µM | 41.4 µM | 42.5 µM | > 100 µM | 27.5 µM | – | 47.7 µM | 44 µM | 30.1 µM | 29.9 µM | > 21.8 µM | 24.1 µM | 18.4 µM | 68.9 µM | 10.1 µM | – | 20.6 µM | 18.7 µM | 11.5 µM | 6.8 µM |
| CCSc1nc(N=Cc2cccs2)c2cn[nH]c2n1 | > 100 µM | > 100 µM | > 100 µM | 57.2 µM | > 100 µM | > 100 µM | > 100 µM | > 100 µM | > 100 µM | – | 33.4 µM | 6.49 µM | 24.6 µM | 10.8 µM | 35.8 µM | 55.9 µM | 6.49 µM | 26.2 µM | 56 µM | – |
| COc1cc2c(/C=C3/C(=O)Nc4ccccc43)c(Cl)n(Cc3ccccc3[N+](=O)[O-])c2cc1C | 22.5 µM | 18.6 µM | 26.7 µM | 15.6 µM | 70.3 µM | > 100 µM | > 100 µM | 40.5 µM | 32.5 µM | – | 6.31 µM | 2.71 µM | 6.6 µM | 3.39 µM | 5.51 µM | 26.1 µM | 24 µM | 12.9 µM | 14.8 µM | – |
| S=C(N/N=C/c1ccccn1)Nc1ccccn1 | 36.4 µM | > 100 µM | > 100 µM | > 100 µM | > 100 µM | > 100 µM | > 100 µM | 9.74 µM | > 100 µM | – | 2.58 µM | 0.371 µM | 0.575 µM | 3.86 µM | 0.467 µM | 0.671 µM | 2.29 µM | 2.35 µM | 2.29 µM | – |
